Results: ChEMBL document CHEMBL1201862, “PubChem BioAssay data set” (2004)
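How tested: cells in 96-well plates exposed to compound for 48 hours at five concentrations. At the GI50, growth is halved.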 Activity calls are given as the source filed them. Cut-off read from the data, not from the text of the source: active = GI50 up to about 1.1 µM and inactive = higher.

Legend:
Assay in all cases: NCI anticancer screen, dose series, 48 h
786-0 = system: 786-0
A498 = system: A498
ACHN = system: ACHN
CAKI-1 = system: CAKI-1
CCRF-CEM = system: CCRF-CEM
COLO 205 = system: COLO 205
DLD-1 = system: DLD-1
DMS-114 = system: DMS-114
DMS-273 = system: DMS-273
HCC 2998 = system: HCC 2998
HCT-116 = system: HCT-116
HCT-15 = system: HCT-15
HL-60 = system: HL-60
HOP-62 = system: HOP-62
HOP-92 = system: HOP-92
IGROV-1 = system: IGROV-1
K562 = system: K562
LXFL 529 = system: LXFL 529
M14 = system: M14
M19-MEL = system: M19-MEL
MOLT-4 = system: MOLT-4
Malme-3M = system: Malme-3M
NCI-H226 = system: NCI-H226
NCI-H23 = system: NCI-H23
NCI-H460 = system: NCI-H460
NCI-H522 = system: NCI-H522
OVCAR-4 = system: OVCAR-4
RPMI-8226 = system: RPMI-8226
RXF 631 = system: RXF 631
SF-268 = system: SF-268
SF-539 = system: SF-539
SK-MEL-28 = system: SK-MEL-28
SK-MEL-2 = system: SK-MEL-2
SK-OV-3 = system: SK-OV-3
SN12C = system: SN12C
SNB-75 = system: SNB-75
SR = system: SR
UACC-62 = system: UACC-62
UO-31 = system: UO-31
XF498 = system: XF498
A549 = system: A549
EKVX = system: EKVX
HT-29 = system: HT-29
KM-20L2 = system: KM-20L2
KM12 = system: KM12
LOX IMVI = system: LOX IMVI
OVCAR-3 = system: OVCAR-3
OVCAR-5 = system: OVCAR-5
OVCAR-8 = system: OVCAR-8
RXF 393 = system: RXF 393
SF-295 = system: SF-295
SK-MEL-5 = system: SK-MEL-5
SNB-19 = system: SNB-19
SNB-78 = system: SNB-78
SW-620 = system: SW-620
TK-10 = system: TK-10
U-251 = system: U-251
UACC-257 = system: UACC-257

## Cc1[nH]c(=O)nc(N(CCO)/N=C/c2ccccc2Cl)c1C(=O)Nc1cc(Cl)cc(Cl)c1
786-0
  GI50: 20.1 µM (inactive)
A498
  GI50: 24.6 µM (inactive)
ACHN
  GI50: 29.2 µM (inactive)
CAKI-1
  GI50: 45.4 µM (inactive)
CCRF-CEM
  GI50: 64.1 µM (inactive)
COLO 205
  GI50: > 100 µM (inactive)
DLD-1
  GI50: 53.1 µM (inactive)
DMS-114
  GI50: 41.2 µM (inactive)
DMS-273
  GI50: 43.8 µM (inactive)
HCC 2998
  GI50: 86.5 µM (inactive)
HCT-116
  GI50: 23 µM (inactive)
HCT-15
  GI50: > 100 µM
HL-60
  GI50: > 100 µM (inactive)
HOP-62
  GI50: 26.5 µM (inactive)
HOP-92
  GI50: 23.9 µM (inactive)
IGROV-1
  GI50: > 100 µM (inactive)
K562
  GI50: 37.3 µM (inactive)
LXFL 529
  GI50: 35.2 µM (inactive)
M14
  GI50: 67.3 µM (inactive)
M19-MEL
  GI50: > 100 µM (inactive)
MOLT-4
  GI50: 77.3 µM (inactive)
Malme-3M
  GI50: > 10 µM (inactive)
NCI-H226
  GI50: 23.1 µM (inactive)
NCI-H23
  GI50: 34.9 µM (inactive)
NCI-H460
  GI50: 27.9 µM (inactive)
NCI-H522
  GI50: 23.1 µM (inactive)
OVCAR-4
  GI50: 31.6 µM (inactive)
RPMI-8226
  GI50: 40.2 µM (inactive)
RXF 631
  GI50: 29.2 µM (inactive)
SF-268
  GI50: 31.8 µM (inactive)
SF-539
  GI50: 24.5 µM (inactive)
SK-MEL-28
  GI50: 36.1 µM (inactive)
SK-MEL-2
  GI50: 48.9 µM (inactive)
SK-OV-3
  GI50: 20.4 µM (inactive)
SN12C
  GI50: 43.7 µM (inactive)
SNB-75
  GI50: 17.7 µM (inactive)
SR
  GI50: 46.1 µM (inactive)
UACC-62
  GI50: > 100 µM (inactive)
UO-31
  GI50: 43.4 µM (inactive)
XF498
  GI50: > 100 µM (inactive)

## Nc1ccc(C(=O)/C=C/c2ccccc2O)cc1
786-0
  GI50: > 100 µM (inactive)
A498
  GI50: > 100 µM (inactive)
A549
  GI50: > 100 µM (inactive)
ACHN
  GI50: > 100 µM (inactive)
CAKI-1
  GI50: > 100 µM (inactive)
CCRF-CEM
  GI50: > 100 µM (inactive)
COLO 205
  GI50: > 100 µM (inactive)
DLD-1
  GI50: > 100 µM (inactive)
DMS-273
  GI50: > 10 µM (inactive)
EKVX
  GI50: > 100 µM (inactive)
HCC 2998
  GI50: > 100 µM (inactive)
HCT-116
  GI50: > 100 µM (inactive)
HCT-15
  GI50: > 100 µM
HL-60
  GI50: > 100 µM (inactive)
HOP-62
  GI50: > 100 µM (inactive)
HT-29
  GI50: > 100 µM (inactive)
IGROV-1
  GI50: > 100 µM (inactive)
K562
  GI50: > 100 µM (inactive)
KM-20L2
  GI50: > 100 µM (inactive)
KM12
  GI50: > 100 µM (inactive)
LOX IMVI
  GI50: > 100 µM (inactive)
LXFL 529
  GI50: > 100 µM (inactive)
M14
  GI50: > 100 µM (inactive)
M19-MEL
  GI50: > 100 µM (inactive)
MOLT-4
  GI50: > 100 µM (inactive)
Malme-3M
  GI50: > 100 µM (inactive)
NCI-H226
  GI50: > 100 µM (inactive)
NCI-H23
  GI50: > 100 µM (inactive)
NCI-H460
  GI50: > 100 µM (inactive)
NCI-H522
  GI50: > 100 µM (inactive)
OVCAR-3
  GI50: > 100 µM (inactive)
OVCAR-4
  GI50: > 100 µM (inactive)
OVCAR-5
  GI50: > 100 µM (inactive)
OVCAR-8
  GI50: > 100 µM (inactive)
RXF 393
  GI50: > 100 µM (inactive)
RXF 631
  GI50: > 100 µM (inactive)
SF-268
  GI50: > 100 µM (inactive)
SF-295
  GI50: > 100 µM (inactive)
SF-539
  GI50: > 100 µM (inactive)
SK-MEL-28
  GI50: > 100 µM (inactive)
SK-MEL-2
  GI50: > 100 µM (inactive)
SK-MEL-5
  GI50: > 100 µM (inactive)
SK-OV-3
  GI50: > 100 µM (inactive)
SN12C
  GI50: > 100 µM (inactive)
SNB-19
  GI50: > 100 µM (inactive)
SNB-75
  GI50: > 100 µM (inactive)
SNB-78
  GI50: > 100 µM (inactive)
SR
  GI50: > 100 µM (inactive)
SW-620
  GI50: > 100 µM (inactive)
TK-10
  GI50: > 100 µM (inactive)
U-251
  GI50: > 100 µM (inactive)
UACC-257
  GI50: > 100 µM (inactive)
UACC-62
  GI50: > 100 µM (inactive)
UO-31
  GI50: > 100 µM (inactive)
XF498
  GI50: > 100 µM (inactive)

## O=C1c2ccccc2C(=O)N1C/C=N/NS(=O)(=O)c1ccc(Cl)cc1
786-0
  GI50: > 100 µM (inactive)
A498
  GI50: > 100 µM (inactive)
A549
  GI50: > 100 µM (inactive)
ACHN
  GI50: > 100 µM (inactive)
CAKI-1
  GI50: > 100 µM (inactive)
CCRF-CEM
  GI50: > 100 µM (inactive)
COLO 205
  GI50: > 100 µM (inactive)
DLD-1
  GI50: > 100 µM (inactive)
DMS-114
  GI50: > 100 µM (inactive)
DMS-273
  GI50: > 100 µM (inactive)
EKVX
  GI50: > 100 µM (inactive)
HCC 2998
  GI50: > 100 µM (inactive)
HCT-116
  GI50: > 100 µM (inactive)
HCT-15
  GI50: > 100 µM
HL-60
  GI50: > 100 µM (inactive)
HOP-62
  GI50: > 100 µM (inactive)
HT-29
  GI50: > 100 µM (inactive)
IGROV-1
  GI50: > 100 µM (inactive)
K562
  GI50: > 100 µM (inactive)
KM-20L2
  GI50: > 100 µM (inactive)
LOX IMVI
  GI50: > 100 µM (inactive)
LXFL 529
  GI50: > 100 µM (inactive)
M14
  GI50: > 100 µM (inactive)
M19-MEL
  GI50: > 100 µM (inactive)
MOLT-4
  GI50: > 100 µM (inactive)
Malme-3M
  GI50: > 100 µM (inactive)
NCI-H226
  GI50: 31.7 µM (inactive)
NCI-H23
  GI50: > 100 µM (inactive)
NCI-H460
  GI50: > 100 µM (inactive)
NCI-H522
  GI50: > 100 µM (inactive)
OVCAR-4
  GI50: > 100 µM (inactive)
OVCAR-8
  GI50: > 100 µM (inactive)
RPMI-8226
  GI50: > 100 µM (inactive)
RXF 631
  GI50: > 100 µM (inactive)
SF-268
  GI50: > 100 µM (inactive)
SF-295
  GI50: > 100 µM (inactive)
SF-539
  GI50: > 100 µM (inactive)
SK-MEL-2
  GI50: > 100 µM (inactive)
SK-MEL-5
  GI50: > 100 µM (inactive)
SN12C
  GI50: > 100 µM (inactive)
SNB-19
  GI50: > 100 µM (inactive)
SNB-75
  GI50: 66.1 µM (inactive)
SR
  GI50: > 100 µM (inactive)
SW-620
  GI50: > 100 µM (inactive)
TK-10
  GI50: > 100 µM (inactive)
U-251
  GI50: > 100 µM (inactive)
UACC-257
  GI50: > 100 µM (inactive)
UACC-62
  GI50: > 100 µM (inactive)
UO-31
  GI50: > 100 µM (inactive)
XF498
  GI50: > 100 µM (inactive)
